Experimental data taken from patent US12661398B2, “Combination of a PD-1 antagonist, a VEGFR/FGFR/RET tyrosine kinase inhibitor and a CBP/beta-catenin inhibitor for treating cancer” (Eisai R&D Management Co., Ltd., priority 2019, dated 2026).

System: mouse Renal cell carcinoma cell line RAG
Experiment: Subcutaneous (s.c.) RAG transplantation model, anti-tumor effect of triple combination (Example 1)
Type: in vivo
Conditions: for CR rate: 28 days of administration
From the text: An Eagle's minimal essential medium (E-MEM) containing 10% fetal bovine serum (FBS) and penicillin/streptomycin (100 unit/mL each) was used to culture a mouse Renal cell carcinoma cell line RAG (ATCC number: CCL-142). Logarithmic growing cells were collected from flasks using Trypsin-EDTA. The suspension of cells was centrifuged to remove the supernatant. Next, Hanks' Balanced Salt Solution (HBSS) was used to prepare a cell suspension having a concentration of 2.5×10^7 cells/mL. The cell suspension was subcutaneously transplanted at a dose of 0.1 mL on the right lateral side of the body of each of 7-week-old mice (BALB/cAnNCrlCrlj, female, Charles River Laboratories Japan Inc.). Eight (8) days after the transplantation, an electronic digital caliper (Digimatic™ Caliper; Mitutoyo Corporation) was used to measure the short and long diameters of a tumor of interest. The following equations were used to calculate the tumor volume TV and RTV. Tumor Volume TV (mm^3)=Long Diameter (mm)×Short Diameter (mm)×Short Diameter (mm)/2 EQ. 1: Relative Tumor Volume RTV=TV on day n/TV on day1 EQ. 2:
Based on the tumor volumes on the first day of administration, grouping was carried out such that the average values of the tumor volumes were almost the same. A 1 mg/ml solution of lenvatinib was prepared using 3 mM HCl and was orally administered at a dose of 0.2 mL/20 g mouse body weight once daily for 28 days. 0.2 mL of an administration sample containing 1.0 mg/mL of an anti-mouse-PD-1 antibody (Clone: RMP1-14, BioXCell, Catalog #: BE0146), which had been diluted with PBS, was intraperitoneally administered (at a dosage of 200 μg/mouse) twice a week a total of 8 times (day 1, day 4, day 8, day 11, day 15, day 18, day 22, and day 25, with the day of the grouping set to day 1). A 2.5 mg/ml solution of E7386 was prepared using 0.1 M HCl and was orally administered at a dose of 0.2 mL/20 g mouse body weight once daily for 28 days. To the control group, nothing was administered. Each group including 8 mice was used to conduct the experiment. Twice a week (day 1, day 4, day 8, day 11, day 15, day 18, day 22, day 25, and day 29), the respective tumor volumes (TV) were determined for the control group, the lenvatinib administration group, the anti-mouse-PD-1 antibody administration group, lenvatinib+anti-mouse-PD-1 antibody administration group, E7386+lenvatinib administration group and triple combination group. The values obtained by logarithmically transforming the tumor volumes were used to carry out statistical analysis by repeated measured Dunnet's multiple comparison. E7386 is (6S,9aS)-N-benzyl-8-({6-[3-(4-ethylpiperazin-1-yl)azetidin-1-yl]pyridin-2-yl}methyl)-6-(2-fluoro-4-hydroxybenzyl)-4,7-dioxo-2-(prop-2-en-1-yl)hexahydro-2H-pyrazino[2,1-c][1,2,4]triazine-1(6H)-carboxamide.

[1] = Day 1 (day of grouping, first administration), BALB/c mice

| Structure (SMILES) | CR rate (BALB/c mice) | tumor volume (TV) [1] [mm^3] | tumor volume (TV) (Day 4, BALB/c mice) [mm^3] | tumor volume (TV) (Day 8, BALB/c mice) [mm^3] | tumor volume (TV) (Day 11, BALB/c mice) [mm^3] | tumor volume (TV) (Day 15, BALB/c mice) [mm^3] | tumor volume (TV) (Day 18, BALB/c mice) [mm^3] | tumor volume (TV) (Day 22, BALB/c mice) [mm^3] | tumor volume (TV) (Day 25, BALB/c mice) [mm^3] | tumor volume (TV) (Day 29, BALB/c mice) [mm^3] |
| --- | --- | --- | --- | --- | --- | --- | --- | --- | --- | --- |
| C=CCN1CC(=O)N2[C@@H](Cc3ccc(O)cc3F)C(=O)N(Cc3cccc(N4CC(N5CCN(CC)CC5)C4)n3)C[C@@H]2N1C(=O)NCc1ccccc1 [E7386, (6S,9aS)-N-benzyl-8-({6-[3-(4-ethylpiperazin-1-yl)azetidin-1-yl]pyridin-2-yl}methyl)-6-(2-fluoro-4-hydroxybenzyl)-4,7-dioxo-2-(prop-2-en-1-yl)hexahydro-2H-pyrazino[2,1-c][1,2,4]triazine-1(6H)-carboxamide] | 1 out of 8 mice | 62 | 93 | 148 | 210 | 301 | 408 | 588 | 723 | 923 |
| COc1cc2nccc(Oc3ccc(NC(=O)NC4CC4)c(Cl)c3)c2cc1C(N)=O [Lenvatinib, 4-[3-chloro-4-(cyclopropylaminocarbonyl)aminophenoxy]-7-methoxy-6-quinolinecarboxamide] | 0 out of 8 mice | 62 | 82 | 102 | 134 | 152 | 175 | 162 | 166 | 151 |
